Measured values from US20040110963A1, “Novel hydrazones” (priority 2001, published 2004).
In brackets after ≈: the same amount, converted by molar mass.

Tests used:
Experiment in all cases: In vitro antibacterial activity (MIC, NCCLS M7-A5 dilution susceptibility test)
Assay type in all cases: cell-based
Escherichia coli DC2 = conditions: for MIC: read-out: Minimum Inhibitory Concentration (MIC) Escherichia coli DC2
Protocol: (§1) Antimicrobial susceptibility testing was performed in accordance with the National Committee for Clinical Laboratory Standards (NCCLS) procedure [M7-A5, 2001: Methods for Dilution Antimicrobial Susceptibility Tests for Bacteria That Grow Aerobically; Approved Standard-Fifth Edition American National Standard].

[1] = system: Staphylococcus aureus 101; conditions: for MIC: read-out: Minimum Inhibitory Concentration (MIC) Staphylococcus aureus 101
Protocol: as §1

[2] = system: Staphylococcus aureus ATCC25923; conditions: for MIC: read-out: Minimum Inhibitory Concentration (MIC) Staphylococcus aureus ATCC25923
Protocol: as §1

Molecule	Minimum Inhibitory Concentration (MIC) Escherichia coli DC2 (Escherichia coli DC2)	Minimum Inhibitory Concentration (MIC) Staphylococcus aureus 101 [1] [micrograms/ml]	Minimum Inhibitory Concentration (MIC) Staphylococcus aureus ATCC25923 [2] [micrograms/ml]	MIC (Escherichia coli DC2) [µg/mL]	MIC [1] [µg/mL]	MIC [2] [µg/mL]
3,5-Bis-(trifluoromethyl)-N′-(2,3,4-trihydroxy-benzylidene)-benzohydrazide [Example 41]	na (na means not active at concentrations less than 128 μg/ml)	64	64	–	–	–
COc1ccc(C(=O)NN=Cc2ccc(O)c(O)c2O)cc1 [Example 39, 4-Methoxy-N′-(2,3,4-trihydroxy-benzylidene)-benzohydrazide]	–	–	–	64 (≈ 212 µM)	64 (≈ 212 µM)	64 (≈ 212 µM)
O=C(NN=Cc1cccc(O)c1O)c1ccc(Cl)c(Cl)c1 [Example 40, 3,4-Dichloro-N′-(2,3-dihydroxy-benzylidene)-benzohydrazide]	–	–	–	> 128	4 (≈ 12.3 µM)	4 (≈ 12.3 µM)
O=C(NN=Cc1ccc(O)c(O)c1O)c1cccc(Cl)c1-n1cccc1 [Example 42, 3-Chloro-2-pyrrol-1-yl-N′-(2,3,4-trihydroxy-benzylidene)-benzohydrazide]	–	–	–	128 (≈ 344 µM)	32 (≈ 86.1 µM)	32 (≈ 86.1 µM)
O=C(NN=Cc1cc(Cl)cc(Cl)c1O)c1cccc(Cl)c1-n1cccc1 [Example 43, 3-Chloro-2-pyrrol-1-yl-N′-(2-hydroxy-3,5-dichloro-benzylidene)-benzohydrazide]	–	–	–	> 128	2 (≈ 4.89 µM)	2 (≈ 4.89 µM)
O=C(NN=Cc1cc(O)c(O)cc1O)c1ccccc1-n1cccc1 [Example 44, 2-Pyrrol-1-yl-N′-(2,4,5-trihydroxy-benzylidene)-benzohydrazide]	–	–	–	128 (≈ 379 µM)	64 (≈ 190 µM)	64 (≈ 190 µM)
O=C(NN=Cc1ccc(O)c(O)c1O)c1ccc(Cl)c(C(F)(F)F)c1 [Example 45, 4-Chloro-3-trifluoromethyl-N′-(2,3,4-trihydroxy-benzylidene)-benzohydrazide]	–	–	–	2 (≈ 5.34 µM)	1 (≈ 2.67 µM)	0.5 (≈ 1.33 µM)
O=C(NN=Cc1cc(Cl)cc(Cl)c1O)c1ccc(Cl)c(C(F)(F)F)c1 [Example 46, 4-Chloro-3-trifluoromethyl-N′-(2-hydroxy-3,5-dichloro-benzylidene)-benzohydrazide]	–	–	–	> 128	128 (≈ 311 µM)	128 (≈ 311 µM)
